US20250303005A1, “PROSTATE SPECIFIC MEMBRANE ANTIGEN (PSMA) LIGANDS WITH IMPROVED RENAL CLEARANCE” (Deutsches Krebsforschungszentrum Stiftung des öffentlichen …, priority 2022, published 2025)
Like-named read-outs stand apart in the source and are kept apart here. Starred links: 1 amine or outer side, 2 acyl side, 3 side chain; linkers in the order of their positions; H or OH if unused. Non-standard residues stand in square brackets, D forms with d. Residues, ends and D or L forms follow the SMILES beside them. ξ: configuration not given here. *: point of attachment. DOTA = O=C(O)CN1CCN(CC(=O)O)CCN(CC(=O)*)CCN(CC(=O)O)CC1; EuK = O=C(O)CC[C@H](NC(=O)N[C@@H](CCCCN*)C(=O)O)C(=O)O; X2 = O=C(O)CCC(NC(=O)NC(CCCCN*)C(=O)O)C(=O)O; 2Nal = N[C@@H](Cc1ccc2ccccc2c1)C(=O)O; ξ2Nal = NC(Cc1ccc2ccccc2c1)C(=O)O; Trx = NC[C@H]1CC[C@H](C(=O)O)CC1; X1 = O=C(C1CCC(CN[*:1])CC1)[*:2]; Sar = CNCC(=O)O

Assays:
PSMA+LNCaP cells [1] = experiment: Cell surface binding and internalization of 68Ga-labeled compounds; format: cell-based; settings: specific uptake by blockage with 500 μM 2-PMPA, mean ± SD (n = 3)
Procedure: (§1) PSMA+LNCaP cells (CRL-1740; ATCC; PSMA-positive) and PC-3 cells (CRL-1435; ATCC; PSMA-negative) were cultured in RPMI medium supplemented with 10% fetal calf serum and 2 mmol/L L-glutamine (all from PAA). Cells were grown at 37° C. in humidified air with 5% CO2 and were harvested using trypsin-ethylenediaminetetraacetic acid (trypsin-EDTA; 0.25% trypsin, 0.02% EDTA, Invitrogen).
(§2) For internalization experiments, 10^5 cells per well were seeded in poly-L-lysine coated 24-well cell culture plates 24 h before incubation. After washing, the cells were incubated with 30 nM of the radiolabeled DOTA-compound (radiolabeled with ^68Ga or ^177Lu) for 45 min at 37° C. (labeling was performed with 5 nmol of precursor peptide). Specific cell uptake was determined by blockage using 500 μM 2-PMPA (2-(phosphonomethyl)pentanedioic acid). Cellular uptake was terminated by washing 3 times with 1 mL of ice-cold PBS. To remove surface-bound radioactivity, cells were incubated twice with 0.5 mL glycine-HCl in PBS (50 mM, pH=2.8) for 5 min. The cells were washed with 1 mL of ice-cold PBS and lysed using 0.3 N NaOH (0.5 mL). The surface-bound and the internalized fractions were measured in a gamma counter. The cell uptake was calculated as percent of the initially added radioactivity bound to 10^5 cells [% ID/10^5 cells] (see Table 2 and Table 2a).

PSMA+LNCaP cells [2] = experiment: Cell surface binding and internalization of 177Lu labeled compounds, without or with blocking by 2-PMPA; format: cell-based; settings: 7.5 pmol precursor per 10^5 cells, 45 min; for Internalization Block / Surface Block: with blocking by 500 μM 2-PMPA (n = 3); for Internalization / Surface: without blocking (n = 3)
Procedure: as §1, §2

PSMA = target: T1, PSMA (Homo sapiens, UniProt Q04609); experiment: Competitive cell binding assay against 68Ga-PSMA-10 on LNCaP cells
T1 construct: in vitro using PSMA^+-cells (LNCaP); host or cells: LNCaP
Procedure: PSMA+LNCaP cells (CRL-1740; ATCC; PSMA-positive) and PC-3 cells (CRL-1435; ATCC; PSMA-negative) were cultured in RPMI medium supplemented with 10% fetal calf serum and 2 mmol/L L-glutamine (all from PAA). Cells were grown at 37° C. in humidified air with 5% CO2 and were harvested using trypsin-ethylenediaminetetraacetic acid (trypsin-EDTA; 0.25% trypsin, 0.02% EDTA, Invitrogen). The competitive cell binding assay and internalization experiments were performed as described previously (2). For competitive cell binding, the cells (10^5 per well) were incubated with a 0.8 nM solution of ^68Ga-labeled radioligand [Glu-urea-Lys(Ahx)]2-HBED-CC (PSMA-10, precursor ordered from ABX, Radeberg, Germany) in the presence of 12 different concentrations of DOTA-compound (0-5000 nM, 100 μL/well). After incubation, the mixture was removed and the wells were washed 3 times with PBS using a multiscreen vacuum manifold (Millipore, Billerica, MA). Cell-bound radioactivity was measured using a gamma counter (Perkin Elmer 2480, Wizard, Gamma Counter). The 50% inhibitory concentration (IC50) values were calculated by fitting the data using a nonlinear regression algorithm (GraphPad Software) (see Table 2)

prostate cancer patients = settings: two patients with extremely advanced and end-stage disease; cited from earlier work
[3] = free ligands, LNCaP, radioligand 68Ga-PSMA-10 0.8 nM, mean ± SD (n = 3), read-out: ki free ligands

T1 sequence (Q04609 whole entry): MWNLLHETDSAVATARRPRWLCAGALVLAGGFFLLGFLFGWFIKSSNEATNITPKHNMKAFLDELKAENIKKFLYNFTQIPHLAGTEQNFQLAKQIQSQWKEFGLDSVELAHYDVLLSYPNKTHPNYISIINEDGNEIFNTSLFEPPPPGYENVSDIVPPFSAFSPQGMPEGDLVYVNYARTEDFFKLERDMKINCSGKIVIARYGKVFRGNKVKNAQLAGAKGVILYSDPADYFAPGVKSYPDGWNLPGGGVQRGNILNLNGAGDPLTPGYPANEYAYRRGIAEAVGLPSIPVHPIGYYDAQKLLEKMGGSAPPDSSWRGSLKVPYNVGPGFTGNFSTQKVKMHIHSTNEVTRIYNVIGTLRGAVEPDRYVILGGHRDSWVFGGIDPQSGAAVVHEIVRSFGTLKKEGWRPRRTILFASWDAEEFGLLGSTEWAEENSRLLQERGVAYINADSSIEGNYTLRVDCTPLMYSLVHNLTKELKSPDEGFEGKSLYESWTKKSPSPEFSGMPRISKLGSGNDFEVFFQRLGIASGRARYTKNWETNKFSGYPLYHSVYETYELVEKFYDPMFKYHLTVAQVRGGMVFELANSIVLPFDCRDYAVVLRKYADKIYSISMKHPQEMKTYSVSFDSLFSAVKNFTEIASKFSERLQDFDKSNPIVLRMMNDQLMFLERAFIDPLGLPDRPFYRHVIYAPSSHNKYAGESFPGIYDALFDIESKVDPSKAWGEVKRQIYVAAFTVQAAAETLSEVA

Row | Structure (SMILES) | Ki (PSMA; [3]) | Specifically cell surface bound (PSMA+LNCaP cells [1]) | Specifically internalized (PSMA+LNCaP cells [1]) | Internalization Block (PSMA+LNCaP cells [2]) | Surface Block (PSMA+LNCaP cells [2]) | Internalization (PSMA+LNCaP cells [2]) | Surface (PSMA+LNCaP cells [2]) | Response in patients (prostate cancer patients) | Ki (PSMA)
1 | O=C(O)CC[C@H](NC(=O)N[C@@H](CCCCNC(=O)[C@H](Cc1ccc2ccccc2c1)NC(=O)[C@H]1CC[C@H](CNC(=O)CN2CCN(CC(=O)O)CCN(CC(=O)O)CCN(CC(=O)O)CC2)CC1)C(=O)O)C(=O)O [PSMA-617, reference compound] | – | 3.47 ± 1.53 % AR/10^5 cells | 2.55 ± 1.97 % AR/10^5 cells | – | – | – | – | – | –
2 | O=C([O-])CC[C@H](NC(=O)N[C@@H](CCCCNC(=O)[C@H](Cc1ccc2ccccc2c1)NC(=O)C1CCC(CNC(=O)CN2CCN(CC(=O)[O-])CCN(CC(=O)[O-])CCN(CC(=O)[O-])CC2)CC1)C(=O)[O-])C(=O)[O-].[225Ac].[H+].[H+].[H+] (stereo partly shown) [225Ac-PSMA-617] | – | – | – | – | – | – | – | complete remission | –
3 | CN(CC(=O)NC[C@H]1CC[C@H](C(=O)N[C@@H](Cc2ccc3ccccc3c2)C(=O)NCCCC[C@H](NC(=O)N[C@@H](CCC(=O)O)C(=O)O)C(=O)O)CC1)C(=O)CN(C)C(=O)CN(C)C(=O)CN1CCN(CC(=O)O)CCN(CC(=O)O)CCN(CC(=O)O)CC1 [DOTA-Sar3-Chx-2-NaI-Lys-urea-Glu] ({DOTA}-[Sar][Sar][Sar][Trx][2Nal]-EuK) | – | 4.42 ± 2.05 % AR/10^5 cells | 2.20 ± 0.98 % AR/10^5 cells | 0.01 ± 0.01 % AR/10^5 cells | 0.03 ± 0.01 % AR/10^5 cells | 0.13 ± 0.08 % AR/10^5 cells | 0.65 ± 0.15 % AR/10^5 cells | – | 29.7 ± 24.2 nM

Second part, led by results:

Row | Ki (PSMA; [3]) | Structure (SMILES) | Specifically cell surface bound (PSMA+LNCaP cells [1]) | Specifically internalized (PSMA+LNCaP cells [1]) | Internalization Block (PSMA+LNCaP cells [2]) | Surface Block (PSMA+LNCaP cells [2]) | Internalization (PSMA+LNCaP cells [2]) | Surface (PSMA+LNCaP cells [2]) | Response in patients (prostate cancer patients) | Ki (PSMA)
4 | 96.8 ± 96.4 nM | CN(CC(=O)NCC1CCC(C(=O)NC(Cc2ccc3ccccc3c2)C(=O)NCCCCC(NC(=O)NC(CCC(=O)O)C(=O)O)C(=O)O)CC1)C(=O)CN(C)C(=O)CN(C)C(=O)CN(C)C(=O)CN(C)C(=O)CN(C)C(=O)CN(C)C(=O)CN(C)C(=O)CN(C)C(=O)CN(C)C(=O)CN1CCN(CC(=O)O)CCN(CC(=O)O)CCN(CC(=O)O)CC1 (stereo not shown) [DOTA-Sar10-Chx-2-NaI-Lys-urea-Glu] | 3.66 ± 1.31 % AR/10^5 cells | 2.31 ± 0.90 % AR/10^5 cells | 0.00 ± 0.00 % AR/10^5 cells | 0.03 ± 0.02 % AR/10^5 cells | 0.10 ± 0.06 % AR/10^5 cells | 0.45 ± 0.08 % AR/10^5 cells | – | –
5 | 74.7 ± 36 nM | CN(CC(=O)NCC1CCC(C(=O)NC(Cc2ccc3ccccc3c2)C(=O)NCCCCC(NC(=O)NC(CCC(=O)O)C(=O)O)C(=O)O)CC1)C(=O)CN(C)C(=O)CN(C)C(=O)CN(C)C(=O)CN(C)C(=O)CN(C)C(=O)CN(C)C(=O)CN(C)C(=O)CN(C)C(=O)CN(C)C(=O)CN(C)C(=O)CN(C)C(=O)CN(C)C(=O)CN(C)C(=O)CN(C)C(=O)CN1CCN(CC(=O)O)CCN(CC(=O)O)CCN(CC(=O)O)CC1 (stereo not shown) [DOTA-Sar15-Chx-2-NaI-Lys-urea-Glu] | 3.71 ± 1.55 % AR/10^5 cells | 2.03 ± 1.71 % AR/10^5 cells | 0.00 ± 0.00 % AR/10^5 cells | 0.02 ± 0.01 % AR/10^5 cells | 0.11 ± 0.05 % AR/10^5 cells | 0.52 ± 0.03 % AR/10^5 cells | – | –
6 | 54.3 ± 33.6 nM | CN(CC(=O)NCC1CCC(C(=O)NC(Cc2ccc3ccccc3c2)C(=O)NCCCCC(NC(=O)NC(CCC(=O)O)C(=O)O)C(=O)O)CC1)C(=O)CN(C)C(=O)CN(C)C(=O)CN(C)C(=O)CN(C)C(=O)CN1CCN(CC(=O)O)CCN(CC(=O)O)CCN(CC(=O)O)CC1 (stereo not shown) [DOTA-Sar5-Chx-2-NaI-Lys-urea-Glu] ({DOTA}-[Sar][Sar][Sar][Sar][Sar][X1][ξ2Nal]-X2) | 2.79 ± 0.50 % AR/10^5 cells | 1.99 ± 1.15 % AR/10^5 cells | 0.00 ± 0.00 % AR/10^5 cells | 0.02 ± 0.01 % AR/10^5 cells | 0.10 ± 0.06 % AR/10^5 cells | 0.47 ± 0.12 % AR/10^5 cells | – | –
